Laboratory results reported in US7001616B2, “Microspheres for use in the treatment of cancer” (University of Florida, priority 1998, dated 2006).
Where a name gives a salt, the structure may show the parent alone. One block for each compound: values may come before it.

Assays:
Assay type in all cases: physicochemical
[1] = In vitro FUDR release from microspheres in buffer; settings: 50/49/1 microspheres
Protocol: (§1) Initial FUDR Test. 150 mg of 50–80 μm diameter EMA/DEA/DVB (in a ratio of 50/49/1) microspheres were washed twice with methanol, dried and then immersed in 1 ml of methanol containing 5 mg FUDR. After 24 hours the methanol was allowed to evaporate and the loaded spheres were dispersed in 50 ml of distilled water and centrifuged repeatedly for 10 cycles. The spheres were collected and allowed to dry in a cone filter under the hood for 24 hours. 10 mg of the loaded spheres were placed in each of two separate vials containing either 15 ml of pH 6.8 citric acid buffer (0.05 M I=0.3) or pH 7.4 potassium phosphate monobasic-NaOH buffer (0.05M, Fisher Scientific). Each vial was agitated by hand daily and a total of 5 samples (5 ml each) were taken over a 14 day period and measured spectrophotometrically at 268 nm to determine the FUDR concentration in solution. Each sample was replaced using fresh buffer. The total percent loading was determined by the same process after placing a 10 mg sample of spheres into 15 ml of pH 4.0 citric acid buffer for 24 hours.
Follow-up FUDR Release. […] Sample volumes of 5 ml and 3 ml were taken from the pH 6.6 and 6.9 buffers, respectively.

[2] = Total percent loading of microspheres with FUDR; settings: 5 mg/ml FUDR in methanol; 50/49/1 microspheres, 50–80 μm
Protocol: as §1

[3] = Release of test dye from microspheres in buffer over 14 days
Protocol: (§2) All four compositions produced in Example 1 were tested for release properties using 9-aminoacridine (Aldrich) (free from HCl) as a test dye. A 100–150 mg sample of each composition (from the 50–80 μm size group) was first washed twice with methanol, allowed to dry, and then immersed in a saturated solution of 9-aminoacridine in methanol (10 wt %) for 24 hours. The methanol was allowed to evaporate (usually for 24 hours) and the microspheres were washed by a repeated process of suspension and centrifuging (Adams Dynac centrifuge) in fresh neutral pH water (at least 10 cycles). The loaded spheres were collected in a paper filter cone and dried in an oven at 60° C. under vacuum.
[…] […] A total of three samples were used from each composition at each pH value to account for error involved with the weighing of the microspheres. At least five samples (5 ml each) were taken from each vial over a 14 day period and the concentration of dye released was determined spectrophotometrically at 400 nm using a Perkin-Elmer Lambda 3B UV/VIS spectrophotometer. Each sample was replaced with fresh buffer solution. A 5 mg sample of each composition was also placed into 15 ml of pH 2.5 citric acid buffer (0.05 M) for 24 hours to determine the total percent loading (mg dye released/mg loaded spheres) for the microspheres.

[4] = Total percent loading of microspheres with test dye; settings: 9-aminoacridine, 100 mg per ml of methanol; spheres from suspension polymerization
Protocol: as §2
For each composition, 5 mg of dye-loaded spheres were placed in glass vials (Fisher 20 ml scintillation vials) containing 15 ml of citric acid buffer (0.05 M, I=0.3) at pH 6.0, 6.5, and 6.8. The buffer solutions consisted of citric acid (anhydrous, Fisher Scientific), NaOH (Fisher Scientific), deionized water, and NaCl (Aldrich). A total of three samples were used from each composition at each pH value to account for error involved with the weighing of the microspheres. At least five samples (5 ml each) were taken from each vial over a 14 day period and the concentration of dye released was determined spectrophotometrically at 400 nm using a Perkin-Elmer Lambda 3B UV/VIS spectrophotometer. […]

[5] = In vitro doxorubicin release from microspheres in buffer; settings: pH 6.75; 50/49/1 microspheres
Protocol: Doxorubicin Release. The doxorubicin release experiments were carried out in the same manner as the FUDR and dye release. 150 mg of 50–80 μm diameter microspheres were cleaned and immersed in 1 ml of methanol containing 5 mg of the drug for 24 hours and the methanol was allowed to evaporate slowly under the hood. The loaded microspheres were cleaned and dried and 10 mg samples were placed into 20 ml glass vials (Fisher Scientific). 15 ml of citric acid buffer was placed into each vial such that there were three samples each at pH values of 6.6, 6.75, and 6.9. Drug release at pH 7.4 was performed using 15 ml potassium phosphate buffer added to each of the remaining three vials. Drug release was measured spectrophotometrically at 479 nm.

FUDR release over 14 day period ([1]; pH 6.8): 80% | FUDR 14 day release ([1]; pH 6.9): 55% | FUDR release ([1]; pH 7.4): over 10% | FUDR loading level [2]: 1.4 weight percentage
SMILES: O=c1[nH]c(=O)n([C@H]2C[C@H](O)[C@@H](CO)O2)cc1F [FUDR, fluorodeoxyuridine]

test dye release after 14 days ([3]; pH 6.8 citric acid buffer): 76% | test dye release after 14 days ([3]; pH 6.9 citric acid buffer): 63% | test dye release after two weeks ([3]; pH 7.4 potassium phosphate monobasic-NaOH buffer): over 10% | dye loading as restated in text [4]: about 15%
SMILES: Nc1c2ccccc2nc2ccccc12 [test dye, 9-aminoacridine]

doxorubicin release over two week period [5]: 75%
SMILES: COc1cccc2c1C(=O)c1c(O)c3c(c(O)c1C2=O)C[C@@](O)(C(=O)CO)C[C@@H]3O[C@H]1C[C@H](N)[C@H](O)[C@H](C)O1 [doxorubicin, hydroxydaunomycin hydrochloride]
